The values that follow come from patent US20240270821A1, “GIP/GLP1/GCG TRI-RECEPTOR AGONISTS AND USES THEREOF” (priority 2023, published 2024).

What all share (format): cell-based
The target in assay [1] is human GcgR (Homo sapiens, UniProt P47871). As to the kind of experiment: Functional cAMP activity in the presence of 1% HSA. To be noted: read-out: cAMP Rel EC50, hGcgR.
Assay [2] addresses T1, hGLP-1R (Homo sapiens, UniProt P43220). Description: Functional cAMP activity in the presence of 1% HSA. To be noted: read-out: cAMP Rel EC50, hGLP-1R.
The target of assay [3] is T1, hGLP-1R. Description: Functional cAMP activation in the presence of 0.1% casein (no HSA). The settings on record: read-out: Relative cAMP EC50, hGLP-1R.
The target in assay [4] is hGcgR (Homo sapiens, UniProt P47871). The assay is described as above. The settings on record: read-out: Relative cAMP EC50, hGcgR.
In assay [5] the target is T2, hGIPR (Homo sapiens, UniProt P48546).
T2 sequence (P48546 22-466): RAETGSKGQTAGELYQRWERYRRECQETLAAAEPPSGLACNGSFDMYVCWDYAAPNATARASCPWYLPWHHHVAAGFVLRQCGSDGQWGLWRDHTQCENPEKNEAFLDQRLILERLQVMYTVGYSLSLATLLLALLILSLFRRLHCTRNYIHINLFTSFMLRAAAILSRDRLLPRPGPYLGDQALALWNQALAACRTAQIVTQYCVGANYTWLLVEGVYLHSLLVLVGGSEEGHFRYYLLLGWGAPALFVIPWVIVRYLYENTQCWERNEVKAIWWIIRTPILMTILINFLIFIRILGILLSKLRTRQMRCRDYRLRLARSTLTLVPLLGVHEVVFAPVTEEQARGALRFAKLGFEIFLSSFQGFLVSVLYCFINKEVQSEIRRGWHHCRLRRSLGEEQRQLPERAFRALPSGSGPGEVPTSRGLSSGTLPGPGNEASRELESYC
Described as above. To be noted: read-out: Relative cAMP EC50, hGIPR.

Assay [6] deals with T2, hGIPR. As to the kind of experiment: Functional cAMP activity in the presence of 1% HSA. To be noted: read-out: cAMP Rel EC50, hGIPR.
Setting [7] is: 0.1% casein, no HSA, geometric mean.
Where [8] appears, read: in the presence of 0.1% casein (no HSA), geometric mean.

A word on the pEC50: it is the EC50 on a negative log10 scale, so that one unit is a factor of ten.

pEC50: −log10 of the molar value. Read-outs that look alike come from different tables or passages of the source. Starred links: 1 amine or outer side, 2 acyl side, 3 side chain; linkers in the order of their positions; H or OH if unused. Non-standard residues stand in square brackets, D forms with d. Residues, ends and D or L forms follow the SMILES beside them. Groups on a side chain read outwards from the residue. No end group written: not given here. *: point of attachment. C20 diacid = O=C(O)CCCCCCCCCCCCCCCCCCC(=O)*; C18 diacid = O=C(O)CCCCCCCCCCCCCCCCC(=O)*; αMePhe(2-F) = C[C@](N)(Cc1ccccc1F)C(=O)O; γGlu = O=C(O)[C@H](CCC(=O)[*:2])N[*:1]; αMe4Pal = C[C@](N)(Cc1ccncc1)C(=O)O; αMeY = C[C@](N)(Cc1ccc(O)cc1)C(=O)O; 4Pal = N[C@@H](Cc1ccncc1)C(=O)O; αMeL = CC(C)C[C@](C)(N)C(=O)O; αMeS = C[C@](N)(CO)C(=O)O; Orn = NCCC[C@H](N)C(=O)O; AEEA = NCCOCCOCC(=O)O; Aib = CC(C)(N)C(=O)O
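Wherever Relative cAMP EC50, hGIPR is given: intracellular cAMP rise after 30 min at 37 °C read by HTRF against a standard curve, scaled between buffer alone (0%) and top control ligand concentration (100%), four-parameter fit.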
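Wherever Relative cAMP EC50, hGLP-1R is given: intracellular cAMP rise after 30 min at 37 °C read by HTRF, normalized between buffer only (0%) and maximal control ligand (100%), four-parameter variable-slope fit.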
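Wherever Relative cAMP EC50, hGcgR is given: intracellular cAMP rise after 30 min at 37 °C, read by HTRF against a cAMP standard curve, scaled from buffer only (0%) to maximal control ligand response (100%).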

Sequence of human GcgR (P47871 26-477): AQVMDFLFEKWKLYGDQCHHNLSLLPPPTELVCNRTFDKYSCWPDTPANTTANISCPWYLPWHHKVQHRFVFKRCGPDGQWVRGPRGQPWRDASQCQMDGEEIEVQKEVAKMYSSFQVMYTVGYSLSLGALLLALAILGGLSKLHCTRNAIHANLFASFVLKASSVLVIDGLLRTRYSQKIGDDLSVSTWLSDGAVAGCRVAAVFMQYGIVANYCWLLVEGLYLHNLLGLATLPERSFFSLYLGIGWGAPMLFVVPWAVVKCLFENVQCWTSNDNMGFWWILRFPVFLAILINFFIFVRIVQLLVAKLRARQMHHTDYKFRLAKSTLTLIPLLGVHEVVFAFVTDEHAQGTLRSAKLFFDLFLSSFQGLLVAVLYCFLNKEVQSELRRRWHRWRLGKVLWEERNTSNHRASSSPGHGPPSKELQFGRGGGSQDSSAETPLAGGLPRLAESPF
Sequence of hGcgR (P47871 26-477): as above
T1 sequence (P43220 24-463): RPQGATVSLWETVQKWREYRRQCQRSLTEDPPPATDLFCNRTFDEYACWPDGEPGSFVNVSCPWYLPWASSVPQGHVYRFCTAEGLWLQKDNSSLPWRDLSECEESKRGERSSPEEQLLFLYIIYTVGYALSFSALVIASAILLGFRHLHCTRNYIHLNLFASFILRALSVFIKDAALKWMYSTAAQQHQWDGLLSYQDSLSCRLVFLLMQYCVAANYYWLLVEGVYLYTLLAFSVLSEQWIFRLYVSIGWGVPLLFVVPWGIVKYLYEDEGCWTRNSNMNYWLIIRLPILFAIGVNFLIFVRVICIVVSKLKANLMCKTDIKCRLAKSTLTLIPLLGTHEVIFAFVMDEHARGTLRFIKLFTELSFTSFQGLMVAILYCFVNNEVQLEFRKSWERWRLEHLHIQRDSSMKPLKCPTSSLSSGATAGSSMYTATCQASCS

Take “H-Y[Aib]QGT[αMePhe(2-F)]TSD[4Pal][αMeS]I[αMeL]LD[Orn][Orn]([AEEA-γGlu-C18 diacid])AQ[αMe4Pal]EFI[dE][αMeY]LIEGGPSSGAPPPSGS-NH2 [Example 1211]”: the pEC50 in assay [1] is 6.68; in assay [2], 7.48; in assay [3] (setting [7]), 9.56; in assay [4] (setting [7]), 8.84; in assay [5] (setting [7]), 11.23; in assay [6], 9.31.

In the case of “H-Y[Aib]QGTFTSDFS[Orn][αMeL]LDKK([AEEA-AEEA-γGlu-C18 diacid])AQ[Aib]AFIEYLLE[Aib]GPSSGEPPPEGS-NH2 [Example 195]”, the pEC50 in assay [1] was 6.22; in assay [2] it was 6.08; in assay [3] (setting [8]), 8.21; in assay [4] (setting [8]) it was 8.51; in assay [5] (setting [8]), 9.84; in assay [6], 7.54.

For the compound “H-Y[Aib]QGTFTSDFSK[αMeL]LDKK([AEEA-γGlu-C18 diacid])AQ[Aib]AFIEYLLEGGPSSGAPPPSEG[AEEA]-NH2 [Example 56]”, the pEC50 was 6.58 in assay [1]; 6.78 in assay [2]; 8.39 in assay [3] (setting [8]); 8.55 in assay [4] (setting [8]); 9.50 in assay [5] (setting [8]); 7.52 in assay [6].

As for “H-Y[Aib]QGT[αMePhe(2-F)]TSD[4Pal]SI[αMeL]LD[Orn]K([γGlu-γGlu-C18 diacid])AQ[αMe4Pal][Orn]FI[dE][αMeY]LIEGGPSSGEPPPEGE-NH2 [Example 683]”, the pEC50 in assay [1] was 6.86; in assay [2], 7.84; in assay [3] it was 9.67; in assay [4], 8.80; in assay [5] it was 11.10; in assay [6] it was 9.31.

As for “H-Y[Aib]QGTFTSD[4Pal]S[Orn][αMeL]LD[Orn]K([γGlu-γGlu-C18 diacid])AQ[αMe4Pal]EFIEYLLAGGPSSGAPPPSGSEE-NH2 [Example 1003]”, the pEC50 is 6.43 in assay [1]; 5.71 in assay [2]; 7.37 in assay [3] (setting [8]); 8.29 in assay [4] (setting [8]); 9.57 in assay [5] (setting [8]); 7.80 in assay [6].

With `CC[C@H](C)[C@H](NC(=O)[C@H](Cc1ccccc1)NC(=O)[C@H](C)NC(=O)C(C)(C)NC(=O)[C@H](CCC(N)=O)NC(=O)[C@H](C)NC(=O)[C@H](CCCCNC(=O)COCCOCCNC(=O)CC[C@H](NC(=O)CCCCCCCCCCCCCCCCC(=O)O)C(=O)O)NC(=O)[C@H](CCCCN)NC(=O)[C@H](CC(=O)O)NC(=O)[C@H](CC(C)C)NC(=O)[C@H](CC(C)C)NC(=O)[C@@H](NC(=O)[C@](C)(CO)NC(=O)[C@H](Cc1ccncc1)NC(=O)[C@H](CC(=O)O)NC(=O)[C@H](CO)NC(=O)[C@@H](NC(=O)[C@](C)(Cc1ccccc1F)NC(=O)[C@@H](NC(=O)CNC(=O)[C@H](CCC(N)=O)NC(=O)C(C)(C)NC(=O)[C@@H](N)Cc1ccc(O)cc1)[C@@H](C)O)[C@@H](C)O)[C@@H](C)CC)C(=O)N[C@@H](CCC(=O)O)C(=O)N[C@@H](Cc1ccc(O)cc1)C(=O)N[C@@H](CC(C)C)C(=O)N[C@@H](CCC(=O)O)C(=O)N[C@@H](CCC(=O)O)C(=O)NCC(=O)NCC(=O)N1CCC[C@H]1C(=O)N[C@@H](CO)C(=O)N[C@@H](CO)C(=O)NCC(=O)N[C@@H](C)C(=O)N1CCC[C@H]1C(=O)N1CCC[C@H]1C(=O)N1CCC[C@H]1C(=O)N[C@@H](CCC(=O)O)C(N)=O` [Example 464] (H-Y[Aib]QGT[αMePhe(2-F)]TSD[4Pal][αMeS]ILLDKK([AEEA-γGlu-C18 diacid])AQ[Aib]AFIEYLEEGGPSSGAPPPE-NH2), the pEC50 in assay [1] is 6.71; in assay [2], 7.34; in assay [3], 9.33; in assay [4], 8.90; in assay [5] it was 10.14; in assay [6], 7.70.

Consider “Y[Aib]Q[dA]T[αMePhe(2-F)]TSD[4Pal]SI[αMeL]LD[Orn]K([AEEA-γGlu-C18 diacid])AQ[αMe4Pal][Orn]FI[dE][αMeY]LIEGGPSSGEPPPESE-NH2 [Example 765]”, for which the pEC50 in assay [1] was 6.95; in assay [2], 7.58; in assay [3], 9.60; in assay [4] it was 9.02; in assay [5] it was 10.19; in assay [6], 7.35.

`CC[C@H](C)[C@H](NC(=O)[C@H](CC(C)C)NC(=O)[C@](C)(Cc1ccc(O)cc1)NC(=O)[C@@H](CCC(=O)O)NC(=O)[C@@H](NC(=O)[C@H](Cc1ccccc1)NC(=O)[C@H](CO)NC(=O)C(C)(C)NC(=O)[C@H](CCC(N)=O)NC(=O)[C@H](C)NC(=O)[C@H](CCCCNC(=O)CC[C@H](NC(=O)CC[C@H](NC(=O)CCCCCCCCCCCCCCCCC(=O)O)C(=O)O)C(=O)O)NC(=O)[C@H](CCCN)NC(=O)[C@H](CC(=O)O)NC(=O)[C@H](CC(C)C)NC(=O)[C@](C)(CC(C)C)NC(=O)[C@@H](NC(=O)[C@](C)(CO)NC(=O)[C@H](Cc1ccncc1)NC(=O)[C@H](CC(=O)O)NC(=O)[C@H](CO)NC(=O)[C@@H](NC(=O)[C@](C)(Cc1ccccc1F)NC(=O)[C@@H](NC(=O)CNC(=O)[C@H](CCC(N)=O)NC(=O)C(C)(C)NC(=O)[C@@H](N)Cc1ccc(O)cc1)[C@@H](C)O)[C@@H](C)O)[C@@H](C)CC)[C@@H](C)CC)C(=O)N[C@@H](CCC(=O)O)C(=O)NCC(=O)NCC(=O)N1CCC[C@H]1C(=O)N[C@@H](CO)C(=O)N[C@@H](CO)C(=O)NCC(=O)N[C@@H](CCC(=O)O)C(=O)N1CCC[C@H]1C(=O)N1CCC[C@H]1C(=O)N1CCC[C@H]1C(=O)N[C@@H](CCC(=O)O)C(N)=O` [Example 436] (H-Y[Aib]QGT[αMePhe(2-F)]TSD[4Pal][αMeS]I[αMeL]LD[Orn]K([γGlu-γGlu-C18 diacid])AQ[Aib]SFI[dE][αMeY]LIEGGPSSGEPPPE-NH2; N-terminus assumed): the pEC50 was 6.74 in assay [1]; 7.93 in assay [2]; 9.76 in assay [3]; 8.64 in assay [4]; 10.53 in assay [5]; 8.93 in assay [6].

With `CC[C@H](C)[C@H](NC(=O)[C@H](CC(C)C)NC(=O)[C@](C)(Cc1ccc(O)cc1)NC(=O)[C@@H](CCC(=O)O)NC(=O)[C@@H](NC(=O)[C@H](Cc1ccccc1)NC(=O)[C@H](CCC(=O)O)NC(=O)C(C)(C)NC(=O)[C@H](C)NC(=O)[C@H](C)NC(=O)[C@H](CCCCNC(=O)COCCOCCNC(=O)CC[C@H](NC(=O)CCCCCCCCCCCCCCCCC(=O)O)C(=O)O)NC(=O)[C@H](CCCN)NC(=O)[C@H](CC(=O)O)NC(=O)[C@H](CC(C)C)NC(=O)[C@](C)(CC(C)C)NC(=O)[C@@H](NC(=O)[C@](C)(CO)NC(=O)[C@H](Cc1ccncc1)NC(=O)[C@H](CC(=O)O)NC(=O)[C@H](CO)NC(=O)[C@@H](NC(=O)[C@](C)(Cc1ccccc1F)NC(=O)[C@@H](NC(=O)CNC(=O)[C@H](CCC(N)=O)NC(=O)C(C)(C)NC(=O)[C@@H](N)Cc1ccc(O)cc1)[C@@H](C)O)[C@@H](C)O)[C@@H](C)CC)[C@@H](C)CC)C(=O)N[C@@H](CCC(=O)O)C(=O)NCC(=O)NCC(=O)N1CCC[C@H]1C(=O)N[C@@H](CO)C(=O)N[C@@H](CO)C(=O)NCC(=O)N[C@@H](C)C(=O)N1CCC[C@H]1C(=O)N1CCC[C@H]1C(=O)N1CCC[C@H]1C(=O)N[C@@H](CO)C(=O)NCC(=O)N[C@@H](CO)C(N)=O` [Example 671], the pEC50 in assay [1] is 6.82; in assay [2] it was 7.75; in assay [3], 9.78; in assay [4] it was 8.74; in assay [5] it was 11.09; in assay [6], 9.18.

“H-Y[Aib]QGTFTSDFS[Orn][αMeL]LDKK([AEEA-γGlu-C20 diacid])AQ[Aib]AFIEYLLAGGPSSGAPPPSEG-NH2 [Example 60]”: the pEC50 was 5.92 in assay [1]; 6.39 in assay [2]; 8.71 in assay [3] (setting [8]); 8.05 in assay [4] (setting [8]); 9.87 in assay [5] (setting [8]); 7.48 in assay [6].
